Assay results from the NIST ThermoML archive (doi:10.1021/acs.jced.5b00662).
Numbers after ± are expanded uncertainties.

Assay: xn = mol fraction of the nth substance listed
Conditions: 100 kPa, Liquid; for speed of sound: Sing-around technique in a fixed-path interferometer; for mass density: Vibrating tube method

CCOCCOCCOCC [diethylene glycol diethyl ether] + O
Conditions | mass density [kg/m3] | speed of sound [m/s]
283.15 K, x1 = 0.97 | 918.572 ± 2.1 | 1305.3 ± 2.3
283.15 K, x1 = 0.9742 | 918.371 ± 2.1 | 1304.9 ± 2.3
283.15 K, x1 = 0.9778 | 918.271 ± 2.1 | 1303.9 ± 2.3
283.15 K, x1 = 0.9836 | 917.783 ± 2.1 | 1303.6 ± 2.3
283.15 K, x1 = 0.9875 | 917.643 ± 2.1 | 1304.4 ± 2.3
283.15 K, x1 = 0.9911 | 917.567 ± 2.1 | 1304.1 ± 2.3
288.15 K, x1 = 0.97 | 913.742 ± 2.1 | 1284.9 ± 2.3
288.15 K, x1 = 0.9742 | 913.543 ± 2.1 | 1284.6 ± 2.3
288.15 K, x1 = 0.9778 | 913.443 ± 2.1 | 1283.6 ± 2.3
288.15 K, x1 = 0.9836 | 912.955 ± 2.1 | 1283.3 ± 2.3
288.15 K, x1 = 0.9875 | 912.82 ± 2.1 | 1284 ± 2.3
288.15 K, x1 = 0.9911 | 912.74 ± 2.1 | 1284 ± 2.3
293.15 K, x1 = 0.97 | 908.91 ± 2.1 | 1264.8 ± 2.3
293.15 K, x1 = 0.9742 | 908.705 ± 2.1 | 1264.4 ± 2.3
293.15 K, x1 = 0.9778 | 908.61 ± 2.1 | 1263.6 ± 2.3
293.15 K, x1 = 0.9836 | 908.126 ± 2.1 | 1263.2 ± 2.3
293.15 K, x1 = 0.9875 | 907.993 ± 2.1 | 1263.9 ± 2.3
293.15 K, x1 = 0.9911 | 907.914 ± 2.1 | 1263.8 ± 2.3
298.15 K, x1 = 0.97 | 904.074 ± 2.1 | 1244.9 ± 2.3
298.15 K, x1 = 0.9742 | 903.873 ± 2.1 | 1244.6 ± 2.3
298.15 K, x1 = 0.9778 | 903.775 ± 2.1 | 1243.7 ± 2.3
298.15 K, x1 = 0.9836 | 903.3 ± 2.1 | 1243.4 ± 2.3
298.15 K, x1 = 0.9875 | 903.166 ± 2.1 | 1244.1 ± 2.3
298.15 K, x1 = 0.9911 | 903.09 ± 2.1 | 1244 ± 2.3
303.15 K, x1 = 0.97 | 899.235 ± 2.1 | 1225.2 ± 2.3
303.15 K, x1 = 0.9742 | 899.035 ± 2.1 | 1224.9 ± 2.3
303.15 K, x1 = 0.9778 | 898.937 ± 2.1 | 1224 ± 2.3
303.15 K, x1 = 0.9836 | 898.467 ± 2.1 | 1223.6 ± 2.3
303.15 K, x1 = 0.9875 | 898.334 ± 2.1 | 1224.4 ± 2.3
303.15 K, x1 = 0.9911 | 898.256 ± 2.1 | 1224.2 ± 2.3
308.15 K, x1 = 0.97 | 894.389 ± 2.1 | 1205.6 ± 2.3
308.15 K, x1 = 0.9742 | 894.189 ± 2.1 | 1205.3 ± 2.3
308.15 K, x1 = 0.9778 | 894.092 ± 2.1 | 1204.6 ± 2.3
308.15 K, x1 = 0.9836 | 893.628 ± 2.1 | 1204.1 ± 2.3
308.15 K, x1 = 0.9875 | 893.496 ± 2.1 | 1204.7 ± 2.3
308.15 K, x1 = 0.9911 | 893.419 ± 2.1 | 1204.6 ± 2.3
313.15 K, x1 = 0.97 | 889.537 ± 2.1 | 1186.4 ± 2.3
313.15 K, x1 = 0.9742 | 889.339 ± 2.1 | 1186 ± 2.3
313.15 K, x1 = 0.9778 | 889.241 ± 2.1 | 1185.3 ± 2.3
313.15 K, x1 = 0.9836 | 888.783 ± 2.1 | 1184.7 ± 2.3
313.15 K, x1 = 0.9875 | 888.652 ± 2.1 | 1184.7 ± 2.3
313.15 K, x1 = 0.9911 | 888.577 ± 2.1 | 1185.3 ± 2.3
323.15 K, x1 = 0.97 | 879.812 ± 2.1 | 1148.2 ± 2.3
323.15 K, x1 = 0.9742 | 879.619 ± 2.1 | 1147.7 ± 2.3
323.15 K, x1 = 0.9778 | 879.518 ± 2.1 | 1147.3 ± 2.3
323.15 K, x1 = 0.9836 | 879.074 ± 2.1 | 1146.7 ± 2.3
323.15 K, x1 = 0.9875 | 878.945 ± 2.1 | 1146.3 ± 2.3
323.15 K, x1 = 0.9911 | 878.873 ± 2.1 | 1146.2 ± 2.3
333.15 K, x1 = 0.97 | 870.056 ± 2.1 | 1111 ± 2.3
333.15 K, x1 = 0.9742 | 869.867 ± 2.1 | 1110.4 ± 2.3
333.15 K, x1 = 0.9778 | 869.76 ± 2.1 | 1110 ± 2.3
333.15 K, x1 = 0.9836 | 869.332 ± 2.1 | 1109.5 ± 2.3
333.15 K, x1 = 0.9875 | 869.203 ± 2.1 | 1109.1 ± 2.3
333.15 K, x1 = 0.9911 | 869.134 ± 2.1 | 1108.9 ± 2.3
343.15 K, x1 = 0.97 | 860.264 ± 2.1 | 1074.5 ± 2.3
343.15 K, x1 = 0.9742 | 860.076 ± 2.1 | 1074 ± 2.3
343.15 K, x1 = 0.9778 | 859.966 ± 2.1 | 1073.7 ± 2.3
343.15 K, x1 = 0.9836 | 859.55 ± 2.1 | 1073.1 ± 2.3
343.15 K, x1 = 0.9875 | 859.411 ± 2.1 | 1072.6 ± 2.3
343.15 K, x1 = 0.9911 | 859.346 ± 2.1 | 1072.7 ± 2.3

OCCOCCO [diethylene glycol] + O
Conditions | mass density, x1 = 0.907 [kg/m3] | mass density, x1 = 0.9589 [kg/m3] | mass density, x1 = 0.9698 [kg/m3] | mass density, x1 = 0.99 [kg/m3] | mass density, x1 = 0.9901 [kg/m3] | speed of sound, x1 = 0.907 [m/s] | speed of sound, x1 = 0.9589 [m/s] | speed of sound, x1 = 0.9698 [m/s] | speed of sound, x1 = 0.99 [m/s] | speed of sound, x1 = 0.9901 [m/s]
283.15 K | 1123.13 ± 2 | 1123.27 ± 2 | 1123.27 ± 2 | 1123.33 ± 2 | 1123.33 ± 2 | 1620.3 ± 1.5 | 1617.8 ± 1.6 | 1617.4 ± 1.6 | 1616.4 ± 1.6 | 1616.5 ± 1.6
288.15 K | 1119.58 ± 2 | 1119.71 ± 2 | 1119.72 ± 2 | 1119.77 ± 2 | 1119.77 ± 2 | 1608 ± 1.5 | 1605.5 ± 1.6 | 1605.2 ± 1.6 | 1604.1 ± 1.6 | 1604.2 ± 1.6
293.15 K | 1116.02 ± 2 | 1116.15 ± 2 | 1116.16 ± 2 | 1116.21 ± 2 | 1116.21 ± 2 | 1595.9 ± 1.5 | 1593.3 ± 1.6 | 1593 ± 1.6 | 1591.9 ± 1.6 | 1592 ± 1.6
298.15 K | 1112.45 ± 2 | 1112.59 ± 2 | 1112.59 ± 2 | 1112.65 ± 2 | 1112.65 ± 2 | 1583.8 ± 1.5 | 1581 ± 1.6 | 1580.8 ± 1.6 | 1579.6 ± 1.6 | 1579.8 ± 1.6
303.15 K | 1108.88 ± 2 | 1109.02 ± 2 | 1109.03 ± 2 | 1109.08 ± 2 | 1109.08 ± 2 | 1571.7 ± 1.5 | 1569 ± 1.6 | 1568.6 ± 1.6 | 1567.5 ± 1.6 | 1567.4 ± 1.6
308.15 K | 1105.3 ± 2 | 1105.43 ± 2 | 1105.44 ± 2 | 1105.5 ± 2 | 1105.5 ± 2 | 1559.6 ± 1.5 | 1557 ± 1.6 | 1556.6 ± 1.6 | 1555.4 ± 1.6 | 1555.4 ± 1.6
313.15 K | 1101.69 ± 2 | 1101.83 ± 2 | 1101.84 ± 2 | 1101.9 ± 2 | 1101.9 ± 2 | 1547.5 ± 1.5 | 1545 ± 1.6 | 1544.6 ± 1.6 | 1543.4 ± 1.6 | 1543.3 ± 1.6
323.15 K | 1094.45 ± 2 | 1094.6 ± 2 | 1094.6 ± 2 | 1094.67 ± 2 | 1094.67 ± 2 | 1523.4 ± 1.5 | 1520.9 ± 1.5 | 1520.5 ± 1.6 | 1519.3 ± 1.6 | 1519.2 ± 1.6
333.15 K | 1087.12 ± 2 | 1087.28 ± 2 | 1087.29 ± 2 | 1087.36 ± 2 | 1087.36 ± 2 | 1499 ± 1.5 | 1496.6 ± 1.5 | 1496.2 ± 1.6 | 1495.1 ± 1.6 | 1494.9 ± 1.6
343.15 K | 1079.71 ± 2 | 1079.88 ± 2 | 1079.9 ± 2 | 1079.97 ± 2 | 1079.97 ± 2 | 1474.6 ± 1.5 | 1472.2 ± 1.5 | 1471.8 ± 1.5 | 1470.8 ± 1.6 | 1470.5 ± 1.6
